In one data set the test system is A673. The experiment in a line: Hits validation, dose-response cell proliferation (CellTiter-Glo). Format: cell-based. To be noted: Homo sapiens, A673; 12-point dose-response 50 μmol/L to 1 nmol/L, mean ± SD. The protocol: (§1) For hits validation and combination study, cells were harvested and aliquoted into 384-well plates at concentrations of 750–1,500 cells per well in a total of 20 μl/well using a Matrix Wellmate (Thermo Scientific). Five μl of culture media containing either vehicles or drug were added to each well the next day (drug concentrations range from 1 nmol/L to 50 μmol/L). For combination study, selected drugs were archived in robotically accessible plates, to which media was added in preparation for addition to master plates by a Nimbus 96 liquid-dispensing workstation (Hamilton). Liquid transfers to dilution and assay plates were handled using the same workstation. Each 384-well master plate contained four 9 by 9 dose-matrix blocks, with eight serial two-fold dilutions (concentrations range from 7.8 nmol/L to 1 μmol/L). Additional wells were reserved for untreated, and vehicle-treated control wells. Cell proliferation was evaluated using Cell-Titer Glo® reagents (Promega). IC50 values were determined for each drug using SigmaPlot (Systat Software). The combination index values were calculated using SigmaPlot (Systat Software) and CompuSyn.
A general note: In ATP-based viability assays light output follows the ATP content of the culture.

Another data set relates to CHLA-258. The data set is described as above. Format: cell-based. The following applies: 12-point dose-response 50 μmol/L to 1 nmol/L, mean ± SD. The protocol:
as §1

The test system of another data set is COG-E-352. The data set is described as above. The class given is cell-based. To be noted: 12-point dose-response 50 μmol/L to 1 nmol/L, mean ± SD. How it is done: as §1
In another data set the test system is Hs 822.T. The data set is described as above. Format: cell-based. The following applies: control cell line, 12-point dose-response, mean ± SD. The protocol:
as §1

Another data set deals with Hs 863.T. The description is as above. The class given is cell-based. The following applies: control cell line, 12-point dose-response, mean ± SD. How it is done:
as §1

The subject of a further data set is RD-ES. The description is as above. To be noted: RD-ES; 12-point dose-response 50 μmol/L to 1 nmol/L, mean ± SD. Format: cell-based. The protocol: as §1
A further data set has as its system SK-ES-1. The description is as above. The class given is cell-based. The following applies: Homo sapiens, SK-ES1; 12-point dose-response 50 μmol/L to 1 nmol/L, mean ± SD. How it is done: as §1
A further data set concerns TC-71. Described as above. The class given is cell-based. To be noted: TC-71; 12-point dose-response 50 μmol/L to 1 nmol/L, mean ± SD. How it is done:
as §1

Another data set deals with Hs 919.T. Described as above. Format: cell-based. To be noted: control cell line, 12-point dose-response, mean ± SD. The protocol:
These drugs were chosen based on their known mechanisms and safety profiles. We also tested the synergy between these drug hits (Supplementary Figures S6–S11). […] We evaluated the anti-proliferation effect in combination treatments using the EWS and control cell lines.
as §1

The next data set concerns EWS cell lines. Kind of data set: Combination study (dose matrix, CellTiter-Glo, combination index). Format: cell-based. How it is done: Next, the predicted and library screened drugs were extensively validated. The in vitro activities of each drug hit were evaluated in an expanded panel of EWS cell lines (either the EWS/FLI1 or the EWS/ERG fusion) (Table 1) and confirmed employing 12-point dose-response curves ranging from 50 μmol/L to 1 nmol/L, with triplicate sampling (Table 3). As mentioned above, one of the most notable drug hits discovered through both the in silico and in vitro drug screening approaches was auranofin. Based on this finding, we subsequently screened auranofin against six other marketed or investigational anticancer drug hits (carfilzomib, elesclomol, bortezomib, geldanamycin, AUY922, and ganetespib, Supplementary Figures S1–S5 and Figure 2). These drugs were chosen based on their known mechanisms and safety profiles. […] We evaluated the anti-proliferation effect in combination treatments using the EWS and control cell lines. […]
For hits validation and combination study, cells were harvested and aliquoted into 384-well plates at concentrations of 750–1,500 cells per well in a total of 20 μl/well using a Matrix Wellmate (Thermo Scientific). […] Cell proliferation was evaluated using Cell-Titer Glo® reagents (Promega). IC50 values were determined for each drug using SigmaPlot (Systat Software). The combination index values were calculated using SigmaPlot (Systat Software) and CompuSyn.

Data set [1] has as its system cancer cells with EWS-FLI1 mutations. On the set-up: method as in GDSC database, cancerrxgene.org. To be noted: ref GDSC database, cancerrxgene.org; cited from earlier work.
In the next data set the test system is A673 cells. The experiment in a line: In vivo xenograft mouse model. The following applies: auranofin 12 mg/kg i.p. 5 days per week, ganetespib 150 mg/kg i.v. once weekly; p < 0.05. How it is done:
To assess the antitumor activity of auranofin (using an alternative delivery approach), ganetespib and the combination treatments in vivo, we generated a xenograft nude mouse model by injecting A673 cells intramuscularly proximal to the tibia. Based on the dose tolerance and pharmacokinetic studies described above, we administered auranofin at a tolerable daily i.p. dose that achieved adequate systemic drug exposure. Auranofin was administered with a dose of 12 mg/kg through an i.p. injection once a day for 5 days per week, and ganetespib was administered with a dose of 150 mg/kg through an i.v. injection once weekly. Mice that grew palpable tumors were randomized into four groups: vehicle, auranofin-only, ganetespib-only, and the combination.
The guidelines adopted by the Institutional Animal Care and Use Committee of the University of Kansas Medical Center (KUMC-IACUC) were followed in all performed procedures. All experimental protocols were approved by KUMC-IACUC. Homozygous athymic nude (Foxn1nu/Foxn1nu) female mice at the age of 4-weeks were purchased from Jackson Laboratories. After one week, one million A673 cells in PBS (pH = 7.3) were injected into mice. The cells were injected intramuscularly proximal to the tibia and treatment started after 15 days of inoculation. Mice developing palpable tumors were divided into 4 arms and treated for up to 18 days: vehicle (20% Cremophor RH40 and 80% D5W iv and 0.5% HPMC K4M ip), auranofin (12 mg/kg i.p. injection 5 days per week), ganetespib (150 mg/kg i.v. injection once weekly), as well as auranofin and ganetespib combined. Mice were evaluated for overall health and weighed every week. When tumor size impeded mobility, mice were sacrificed and necropsies were performed. Tumors were then dissected, measured and processed for analysis. The liver, kidneys, and spleen were also snap frozen in liquid nitrogen or fixed in 10% neutral buffered formalin and paraffin embedded for toxicity studies. Tissues were then subjected to hematoxylin and eosin (H&E) staining and immunohistochemical staining. […]

For data set [2] the following is noted: 24-month study in rats; auranofin 1.0 or 2.5 mg/kg/day orally; gold sodium thiomalate 2 or 6 mg/kg twice weekly; cited from earlier work.

Some results are limits rather than exact numbers.

With `CCNC(=O)c1noc(-c2cc(C(C)C)c(O)cc2O)c1-c1ccc(CN2CCOCC2)cc1` [AUY922], the IC50 is 0.02 ± 0.002 µM in the data set with A673; < 0.003 µM with CHLA-258; < 0.003 µM in the data set with COG-E-352; > 20 µM in the data set with Hs 822.T.; > 20 µM in the data set with Hs 863.T.; 0.009 ± 0.001 µM in the data set with RD-ES. The IC50 is 0.03 ± 0.002 µM with SK-ES-1, < 0.003 µM with TC-71 and > 20 µM in the data set on Hs 919.T.. The “synergy in combination with auranofin” value in the data set on EWS cell lines is given as “highly synergistic”.
As to `CN(NC(=O)CC(=O)NN(C)C(=S)c1ccccc1)C(=S)c1ccccc1` [Elesclomol], the IC50 with A673 was 0.006 ± 0.006 µM; in the data set with CHLA-258, < 0.003 µM; in the data set on COG-E-352, 0.007 ± 0.002 µM; in the data set on Hs 822.T., > 20 µM; in the data set on Hs 863.T. it was > 20 µM; with RD-ES, 0.05 ± 0.06 µM. The IC50 in the data set with SK-ES-1 is 0.01 ± 0.001 µM; in the data set with TC-71, < 0.003 µM; with Hs 919.T., > 20 µM. Also, the “sensitivity of cancer cells with EWS-FLI1 mutations compared with wild-type” value in [1] is “preferentially sensitive”.
Take `CC(=O)[C@H]1CC[C@H]2[C@@H]3CCC4=CC(=O)CC[C@]4(C)[C@H]3CC[C@]12C` [Progesterone]: the IC50 with A673 was > 50 µM; with CHLA-258, 11.5 ± 5.31 µM; with COG-E-352, 24.9 ± 5.85 µM; with Hs 822.T., > 50 µM; with Hs 863.T., > 50 µM; in the data set with RD-ES, > 50 µM. Moreover, the IC50 in the data set on SK-ES-1, with TC-71 and in the data set on Hs 919.T. was > 50 µM in each case.
Take `COc1ccc(C[C@H](N)C(=O)N[C@H]2[C@@H](O)[C@H](n3cnc4c(N(C)C)ncnc43)O[C@@H]2CO)cc1` [Puromycin]: the half-maximal inhibitory concentration (IC50) in the data set with A673 worked out at 0.25 ± 0.01 µM; in the data set on CHLA-258 it was 0.06 ± 0.02 µM; in the data set with COG-E-352, 0.05 ± 0.01 µM; in the data set on Hs 822.T., 0.55 ± 0.13 µM; in the data set on Hs 863.T., 1.02 ± 0.26 µM; in the data set on RD-ES it was 0.35 ± 0.03 µM. In addition, the IC50 is 0.35 ± 0.1 µM in the data set on SK-ES-1, 0.08 ± 0.05 µM in the data set on TC-71 and 0.89 ± 0.03 µM in the data set on Hs 919.T..
Regarding `C[n+]1cc2c3c(ccc2c2ccc4cc5c(cc4c21)OCO5)OCO3` [Sanguinarine], the IC50 with A673 was 0.75 ± 0.14 µM; in the data set with CHLA-258 it was 0.95 ± 0.31 µM; with COG-E-352, 1.05 ± 0.18 µM; in the data set on Hs 822.T. it was 1.55 ± 0.26 µM; in the data set with Hs 863.T., 1.25 ± 0.14 µM; with RD-ES it was 1.5 ± 0.12 µM. Also, the IC50 with SK-ES-1 was 1.87 ± 0.51 µM; in the data set on TC-71, 0.2 ± 0.08 µM; in the data set with Hs 919.T., 1.44 ± 0.32 µM.
For `CCC(C)(C)C(=O)O[C@H]1C[C@@H](C)C=C2C=C[C@H](C)[C@H](CC[C@@H]3C[C@@H](O)CC(=O)O3)[C@H]21` [Simvastatin], the IC50 in the data set with A673 is 0.58 ± 0.05 µM; with CHLA-258 it was 0.25 ± 0.13 µM; in the data set on COG-E-352 it was 10.5 ± 1.7 µM; with Hs 822.T. it was 2.08 ± 0.84 µM; in the data set on Hs 863.T., 4.1 ± 0.56 µM; in the data set on RD-ES it was 3.25 ± 0.14 µM. Further, the IC50 with SK-ES-1 was 3.86 ± 0.89 µM; with TC-71 it was 4.33 ± 3.86 µM; with Hs 919.T., 2.88 ± 0.58 µM.
On to `CC1=C(/C=C/C(C)=C/C=C/C(C)=C/C(=O)O)C(C)(C)CCC1` [Tretinoin], for which the IC50 in the data set on A673 was > 50 µM; in the data set on CHLA-258 it was 4.95 ± 3.82 µM; in the data set with COG-E-352, 35.5 ± 6.28 µM; with Hs 822.T., > 50 µM; in the data set with Hs 863.T., > 50 µM; in the data set with RD-ES it was > 50 µM. In addition, the IC50 with SK-ES-1, in the data set with TC-71 and with Hs 919.T. was > 50 µM throughout.
As to `CN1CCN(CCCN2c3ccccc3Sc3ccc(C(F)(F)F)cc32)CC1` [Trifluoperazine], the IC50 with A673 worked out at 15.6 ± 3.55 µM; in the data set on CHLA-258, 13.6 ± 4.8 µM; in the data set with COG-E-352 it was 12.1 ± 1.58 µM; in the data set with Hs 822.T., 10.6 ± 2.45 µM; in the data set on Hs 863.T., 9.84 ± 2.28 µM; with RD-ES it was 18.2 ± 2.54 µM. Also, the IC50 in the data set with SK-ES-1 is 16.7 ± 3.14 µM; in the data set with TC-71 it was 16.4 ± 3.46 µM; in the data set with Hs 919.T., 16.8 ± 4.2 µM.
Consider `CC[C@]1(O)C[C@@H]2CN(CCc3c([nH]c4ccccc34)[C@@](C(=O)OC)(c3cc4c(cc3OC)N(C)[C@H]3[C@@](O)(C(N)=O)[C@H](O)[C@]5(CC)C=CCN6CC[C@]43[C@@H]65)C2)C1` [Vindesine], for which the IC50 in the data set on A673 was < 0.003 µM; in the data set with CHLA-258, < 0.003 µM; in the data set on COG-E-352 it was < 0.003 µM; in the data set with Hs 822.T., 0.25 ± 0.01 µM; in the data set with Hs 863.T., 0.28 ± 0.01 µM; in the data set with RD-ES it was < 0.003 µM. Moreover, the IC50 in the data set on SK-ES-1 was < 0.003 µM; in the data set on TC-71, < 0.003 µM; in the data set on Hs 919.T. it was 4.58 ± 0.45 µM.
In the case of `CC(C)c1cc(-c2n[nH]c(=O)n2-c2ccc3c(ccn3C)c2)c(O)cc1O` [ganetespib], the IC50 in the data set with A673 was 0.04 ± 0.01 µM; in the data set on CHLA-258, < 0.003 µM; in the data set with COG-E-352, < 0.003 µM; in the data set with Hs 822.T., > 20 µM; in the data set on Hs 863.T. it was > 20 µM; with RD-ES, 0.02 ± 0.02 µM. The IC50 was 0.01 ± 0.001 µM in the data set on SK-ES-1, < 0.003 µM in the data set with TC-71 and > 20 µM in the data set on Hs 919.T.. Also, the “synergy in combination with auranofin” value in the data set with EWS cell lines is given as “highly synergistic”. In addition, the “survival rate versus control group” value in the data set with A673 cells is “significantly increased the survival rate”.
As for `O=C([O-])CC([S-])C(=O)[O-].[Au+].[Na+].[Na+]` (centres unmarked) [gold sodium thiomalate], the “frequency of renal tubular cell karyomegaly and cytomegaly and renal adenoma” value in data set [2] is given as “significant incr ease”.

By IC50 is commonly meant the concentration at which inhibition is half-maximal.

Values taken from PMC5354814, “In silico and in vitro drug screening identifies new therapeutic approaches for Ewing sarcoma” (Oncotarget, 2016).
